Results published in PubChem BioAssay AID1919008 (Molecular Pharmacology Branch, DTP, NCI, 2023).
Where “and” joins values, the source holds several entries; their conditions need not be identical. Equal entries are not always repeated.

Test system: DMS-114 complex spheroids with HUVEC/MSC, growth % test/control
Assay: Anticancer human tumor DMS-114 cell line growth inhibition [AhR];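 further: spheroids exposed to agents for 7 days before readout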;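 on viability, T/C: 100% = DMSO vehicle control wells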
Details: for viability, T/C: stronger effect = lower value
Outline: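 Complex tumor spheroids co-cultured with HUVEC and human MSC stroma; AhR antagonists tested in combination with standard-of-care and investigational agents. Top concentration at or near clinical Cmax (else 10 microM), half-log dilutions; growth expressed as percent test/control.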

[1] = curve of first compound, second compound 0.1 µM
[2] = curve of first compound, second compound 0.316 µM
[3] = curve of first compound, second compound 1 µM
[4] = curve of first compound, second compound 3.16 µM
[5] = curve of first compound, second compound 10 µM
[6] = second compound 0.1 µM, first compound 0.0316 µM
[7] = second compound 0.1 µM, first compound 0.1 µM
[8] = second compound 0.1 µM, first compound 0.316 µM
[9] = second compound 0.1 µM, first compound 1 µM
[10] = second compound 0.1 µM, first compound 3.16 µM
[11] = second compound 0.1 µM, first compound 10 µM
[12] = second compound 0.316 µM, first compound 0.0316 µM
[13] = second compound 0.316 µM, first compound 0.1 µM
[14] = second compound 0.316 µM, first compound 0.316 µM
[15] = second compound 0.316 µM, first compound 1 µM
[16] = second compound 0.316 µM, first compound 3.16 µM
[17] = second compound 0.316 µM, first compound 10 µM
[18] = second compound 1 µM, first compound 0.0316 µM
[19] = second compound 1 µM, first compound 0.1 µM
[20] = second compound 1 µM, first compound 0.316 µM
[21] = second compound 1 µM, first compound 1 µM
[22] = second compound 1 µM, first compound 3.16 µM
[23] = second compound 1 µM, first compound 10 µM
[24] = second compound 3.16 µM, first compound 0.0316 µM
[25] = second compound 3.16 µM, first compound 0.1 µM
[26] = second compound 3.16 µM, first compound 0.316 µM
[27] = second compound 3.16 µM, first compound 1 µM
[28] = second compound 3.16 µM, first compound 3.16 µM
[29] = second compound 3.16 µM, first compound 10 µM
[30] = second compound 10 µM, first compound 0.0316 µM
[31] = second compound 10 µM, first compound 0.1 µM
[32] = second compound 10 µM, first compound 0.316 µM
[33] = second compound 10 µM, first compound 1 µM
[34] = second compound 10 µM, first compound 3.16 µM
[35] = second compound 10 µM, first compound 10 µM

## COc1cccc2c1C(=O)c1c(O)c3c(c(O)c1C2=O)CC(O)(C(=O)CO)CC3OC1CC(N)C(O)C(C)O1 (stereo not drawn) + CC(CO)NC(=O)c1cc(-c2ccc(Cl)cc2)nn(-c2cnn(C)c2)c1=O
[1]
  IC50: < 0.0316 µM
[2]
  IC50: 0.034 µM
[3]
  IC50: < 0.0316 µM
[4]
  IC50: < 0.0316 µM
[5]
  IC50: < 0.0316 µM
[6]
  viability, T/C: 40.4%
[7]
  viability, T/C: 34.1%
[8]
  viability, T/C: 8.85%
[9]
  viability, T/C: 1.01%
[10]
  viability, T/C: 0.27%
[11]
  viability, T/C: 0.6%
[12]
  viability, T/C: 51.2%
[13]
  viability, T/C: 31.4%
[14]
  viability, T/C: 8.15%
[15]
  viability, T/C: 0.97%
[16]
  viability, T/C: 0.59%
[17]
  viability, T/C: 0.6%
[18]
  viability, T/C: 48.8%
[19]
  viability, T/C: 33.5%
[20]
  viability, T/C: 10.3%
[21]
  viability, T/C: 0.95%
[22]
  viability, T/C: 0.33%
[23]
  viability, T/C: 0.54%
[24]
  viability, T/C: 43.9%
[25]
  viability, T/C: 35.4%
[26]
  viability, T/C: 9.19%
[27]
  viability, T/C: 0.92%
[28]
  viability, T/C: 1.14%
[29]
  viability, T/C: 0.73%
[30]
  viability, T/C: 43.4%
[31]
  viability, T/C: 27.3%
[32]
  viability, T/C: 9.28%
[33]
  viability, T/C: 0.38%
[34]
  viability, T/C: 0.32%
[35]
  viability, T/C: 0.4%

## O=C(C=Cc1cccc(S(=O)(=O)Nc2ccccc2)c1)NO
Compound 0.0316 µM
  viability, T/C: 88.4% and 108% and 83%
Compound 0.1 µM
  viability, T/C: 85.7% and 103% and 74.2%
Compound 0.316 µM
  viability, T/C: 54.9% and 91% and 60%
Compound 1 µM
  viability, T/C: 29.6% and 69.9% and 26.9%
Compound 3.16 µM
  viability, T/C: 13.4% and 26.4% and 15.6%
Compound 10 µM
  viability, T/C: 9.67% and 29.7% and 13.6%
Curve of compound
  IC50: 0.424 µM and 1.73 µM and 0.436 µM

## CC(C)c1c(-c2ccccc2)nc2c(C#N)c[nH]n2c1=O + Cc1cncc(-c2nc(NCCc3c[nH]c4ccccc34)c3ncn(C(C)C)c3n2)c1
[1]
  IC50: > 10 µM
[2]
  IC50: > 10 µM
[3]
  IC50: > 10 µM
[4]
  IC50: > 10 µM
[5]
  IC50: < 0.0316 µM
[6]
  viability, T/C: 111%
[7]
  viability, T/C: 100%
[8]
  viability, T/C: 103%
[9]
  viability, T/C: 108%
[10]
  viability, T/C: 97.4%
[11]
  viability, T/C: 97.4%
[12]
  viability, T/C: 107%
[13]
  viability, T/C: 97.9%
[14]
  viability, T/C: 103%
[15]
  viability, T/C: 92.6%
[16]
  viability, T/C: 111%
[17]
  viability, T/C: 95.3%
[18]
  viability, T/C: 107%
[19]
  viability, T/C: 107%
[20]
  viability, T/C: 102%
[21]
  viability, T/C: 112%
[22]
  viability, T/C: 101%
[23]
  viability, T/C: 108%
[24]
  viability, T/C: 92.9%
[25]
  viability, T/C: 80.6%
[26]
  viability, T/C: 83.3%
[27]
  viability, T/C: 88.8%
[28]
  viability, T/C: 86.4%
[29]
  viability, T/C: 92.6%
[30]
  viability, T/C: 30.4%
[31]
  viability, T/C: 40.1%
[32]
  viability, T/C: 33.3%
[33]
  viability, T/C: 40%
[34]
  viability, T/C: 32.5%
[35]
  viability, T/C: 46.4%

## COc1ccc([C@@H](O)c2cc(-c3ncnc4cc(N5CCOCC5)ccc34)c(F)cc2Cl)nn1 + Cc1cncc(-c2nc(NCCc3c[nH]c4ccccc34)c3ncn(C(C)C)c3n2)c1
[1]
  IC50: > 10 µM
[2]
  IC50: > 10 µM
[3]
  IC50: > 10 µM
[4]
  IC50: 7.74 µM
[5]
  IC50: < 0.0316 µM
[6]
  viability, T/C: 125%
[7]
  viability, T/C: 95.8%
[8]
  viability, T/C: 102%
[9]
  viability, T/C: 104%
[10]
  viability, T/C: 107%
[11]
  viability, T/C: 55.7%
[12]
  viability, T/C: 101%
[13]
  viability, T/C: 93%
[14]
  viability, T/C: 96.2%
[15]
  viability, T/C: 104%
[16]
  viability, T/C: 87.5%
[17]
  viability, T/C: 52.2%
[18]
  viability, T/C: 98.7%
[19]
  viability, T/C: 103%
[20]
  viability, T/C: 99.8%
[21]
  viability, T/C: 107%
[22]
  viability, T/C: 94.4%
[23]
  viability, T/C: 53.2%
[24]
  viability, T/C: 87%
[25]
  viability, T/C: 90.1%
[26]
  viability, T/C: 98.7%
[27]
  viability, T/C: 94.5%
[28]
  viability, T/C: 85.4%
[29]
  viability, T/C: 39.5%
[30]
  viability, T/C: 35.6%
[31]
  viability, T/C: 38.9%
[32]
  viability, T/C: 29.7%
[33]
  viability, T/C: 29.7%
[34]
  viability, T/C: 17.9%
[35]
  viability, T/C: 12.4%

## Nc1ncn(C2CC(O)C(CO)O2)c(=O)n1 (stereo not drawn) + CC(CO)NC(=O)c1cc(-c2ccc(Cl)cc2)nn(-c2cnn(C)c2)c1=O
[1]
  IC50: > 1 µM
[2]
  IC50: > 1 µM
[3]
  IC50: > 1 µM
[4]
  IC50: > 1 µM
[5]
  IC50: > 1 µM
Second compound 0.1 µM, first compound 0.00316 µM
  viability, T/C: 102%
Second compound 0.1 µM, first compound 0.01 µM
  viability, T/C: 95.6%
[6]
  viability, T/C: 97.8%
[7]
  viability, T/C: 96.5%
[8]
  viability, T/C: 85%
[9]
  viability, T/C: 61.6%
Second compound 0.316 µM, first compound 0.00316 µM
  viability, T/C: 122%
Second compound 0.316 µM, first compound 0.01 µM
  viability, T/C: 101%
[12]
  viability, T/C: 93.9%
[13]
  viability, T/C: 80%
[14]
  viability, T/C: 79.8%
[15]
  viability, T/C: 59.8%
Second compound 1 µM, first compound 0.00316 µM
  viability, T/C: 91.3%
Second compound 1 µM, first compound 0.01 µM
  viability, T/C: 105%
[18]
  viability, T/C: 90.3%
[19]
  viability, T/C: 93.8%
[20]
  viability, T/C: 83.3%
[21]
  viability, T/C: 72.3%
Second compound 3.16 µM, first compound 0.00316 µM
  viability, T/C: 109%
Second compound 3.16 µM, first compound 0.01 µM
  viability, T/C: 104%
[24]
  viability, T/C: 80.1%
[25]
  viability, T/C: 94.5%
[26]
  viability, T/C: 85.1%
[27]
  viability, T/C: 70.7%
Second compound 10 µM, first compound 0.00316 µM
  viability, T/C: 101%
Second compound 10 µM, first compound 0.01 µM
  viability, T/C: 99.7%
[30]
  viability, T/C: 93.4%
[31]
  viability, T/C: 98%
[32]
  viability, T/C: 91.8%
[33]
  viability, T/C: 76.5%

## NS(=O)(=O)OCC1CC(n2ccc3c(NC4CCc5ccccc54)ncnc32)CC1O (stereo not drawn)
Compound 0.0316 µM
  viability, T/C: 56% and 124% and 59.6%
Compound 0.1 µM
  viability, T/C: 31.8% and 84.4% and 33.5%
Compound 0.316 µM
  viability, T/C: 17.6% and 31.9% and 17.2%
Compound 1 µM
  viability, T/C: 6.55% and 22.7% and 10.3%
Compound 3.16 µM
  viability, T/C: 4.52% and 19.9% and 8.23%
Compound 10 µM
  viability, T/C: 4.43% and 14.3% and 5.53%
Curve of compound
  IC50: 0.0423 µM and 0.215 µM and 0.048 µM

## Cn1ncnc1C1c2n[nH]c(=O)c3cc(F)cc(c23)NC1c1ccc(F)cc1 (stereo not drawn)
Compound 0.000316 µM
  viability, T/C: 100% and 96.9% and 109%
Compound 0.001 µM
  viability, T/C: 98.4% and 102% and 98%
Compound 0.00316 µM
  viability, T/C: 95.9% and 96.9% and 99.1%
Compound 0.01 µM
  viability, T/C: 96% and 100% and 99.3%
Compound 0.0316 µM
  viability, T/C: 93.1% and 107% and 99.9%
Compound 0.1 µM
  viability, T/C: 76.3% and 101% and 86.2%
Curve of compound
  IC50: > 0.1 µM

## Nc1ccccc1NC(=O)c1ccc(CNC(=O)OCc2cccnc2)cc1 + CC(CO)NC(=O)c1cc(-c2ccc(Cl)cc2)nn(-c2cnn(C)c2)c1=O
[1]
  IC50: 0.749 µM
[2]
  IC50: 0.782 µM
[3]
  IC50: 0.726 µM
[4]
  IC50: 0.65 µM
[5]
  IC50: 0.813 µM
[6]
  viability, T/C: 87.3%
[7]
  viability, T/C: 85.8%
[8]
  viability, T/C: 68.2%
[9]
  viability, T/C: 43.6%
[10]
  viability, T/C: 23.1%
[11]
  viability, T/C: 13.4%
[12]
  viability, T/C: 87%
[13]
  viability, T/C: 89.7%
[14]
  viability, T/C: 76.4%
[15]
  viability, T/C: 42.3%
[16]
  viability, T/C: 20.6%
[17]
  viability, T/C: 13.5%
[18]
  viability, T/C: 91.2%
[19]
  viability, T/C: 87.6%
[20]
  viability, T/C: 73.4%
[21]
  viability, T/C: 39.8%
[22]
  viability, T/C: 24.6%
[23]
  viability, T/C: 14.8%
[24]
  viability, T/C: 92.8%
[25]
  viability, T/C: 75.4%
[26]
  viability, T/C: 68.5%
[27]
  viability, T/C: 40.1%
[28]
  viability, T/C: 23.2%
[29]
  viability, T/C: 14.8%
[30]
  viability, T/C: 90%
[31]
  viability, T/C: 87.7%
[32]
  viability, T/C: 69.2%
[33]
  viability, T/C: 45.8%
[34]
  viability, T/C: 24.9%
[35]
  viability, T/C: 14.4%

## Nc1ccn(C2OC(CO)C(O)C2(F)F)c(=O)n1 (stereo not drawn)
Compound 0.0316 µM
  viability, T/C: 9.8% and 13.2% and 25.1%
Compound 0.1 µM
  viability, T/C: 8.85% and 12.6% and 26.8%
Compound 0.316 µM
  viability, T/C: 9.58% and 12.2% and 25.9%
Compound 1 µM
  viability, T/C: 10.4% and 11% and 25.1%
Compound 3.16 µM
  viability, T/C: 9.16% and 11.7% and 24.5%
Compound 10 µM
  viability, T/C: 9.05% and 10.8% and 25.4%
Curve of compound
  IC50: < 0.0316 µM
